Data published in patent US9034851B2, “Substituted pyrimidines” (MERCK SHARP & DOHME CORP., priority 2011, dated 2015).

Target: T1, HIF PHD2 (Homo sapiens, UniProt Q9GZT9)
T1 construct: FLAG-tagged full length PHD2; FLAG; made in house; host or cells: baculovirus-infected Sf9 cells
Assay: PHD2 inhibition assay (time resolved fluorescence, HIF-1α peptide hydroxylation / VHL detection)
Assay type: biochemical
Conditions: FLAG-tagged full length PHD2; 0.2 μM 2-oxoglutarate, 0.5 μM HIF-1α peptide
Protocol: To each well of a 96-well plate was added 1 μL of test compound in DMSO and 20 μl of assay buffer (50 mM Tris pH 7.4/0.01% Tween-20/0.1 mg/ml bovine serum albumin/10 μM ferrous sulfate/1 mM sodium ascorbate/20 μg/ml catalase) containing 0.15 μg/ml FLAG-tagged full length PHD2 expressed in and purified from baculovirus-infected Sf9 cells. After a 30 min preincubation at room temperature, the enzymatic reactions were initiated by the addition of 4 μL of substrates (final concentrations of 0.2 μM 2-oxoglutarate and 0.5 μM HIF-1α peptide biotinyl-DLDLEMLAPYIPMDDDFQL (SEQ ID NO:1)). After 2 hours at room temperature, the reactions were terminated and signals were developed by the addition of a 25 μL quench/detection mix to a final concentration of 1 mM ortho-phenanthroline, 0.1 mM EDTA, 0.5 nM anti-(His)6 LANCE reagent (Perkin-Elmer Life Sciences), 100 nM AF647-labeled streptavidin (Invitrogen), and 2 μg/ml (His)6-VHL complex (S. Tan (2001) Protein Expr. Purif. 21, 224-234). The ratio of time resolved fluorescence signals at 665 and 620 nm was determined; and percent inhibition was calculated relative to an uninhibited control sample run in parallel.

T1 sequence (Q9GZT9 whole entry): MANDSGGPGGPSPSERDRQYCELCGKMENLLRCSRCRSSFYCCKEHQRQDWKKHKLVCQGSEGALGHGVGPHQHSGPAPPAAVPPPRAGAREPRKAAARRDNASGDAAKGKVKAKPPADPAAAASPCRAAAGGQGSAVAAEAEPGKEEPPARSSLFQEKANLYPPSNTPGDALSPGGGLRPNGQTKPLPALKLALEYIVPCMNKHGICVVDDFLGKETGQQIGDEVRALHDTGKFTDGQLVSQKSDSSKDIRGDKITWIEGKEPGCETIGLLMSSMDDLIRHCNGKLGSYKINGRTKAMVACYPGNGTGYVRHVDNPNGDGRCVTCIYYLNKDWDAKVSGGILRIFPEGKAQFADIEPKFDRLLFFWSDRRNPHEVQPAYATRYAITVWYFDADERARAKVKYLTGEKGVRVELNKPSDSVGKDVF

Row | Structure (SMILES) | IC50 [nM]
1 | CP(=O)(O)c1cnn(-c2ncc(C(=O)NC(c3ccccc3)c3ccccc3)c(O)n2)c1 [Compound 1-1, 1-(5-(benzhydrylcarbamoyl)-4-hydroxypyrimidin-2-yl)-1H-pyrazol-4-yl(methyl)phosphinic acid] | 0.5 to 20
2 | CCOP(=O)(CNC(=O)c1ncc(C(=O)NC(c2ccccc2)c2ccccc2)c(O)n1)OCC [Compound 2-5, Diethyl {[({5-[(diphenylmethyl)carbamoyl]-4-hydroxypyrimidin-2-yl}carbonyl)amino]methyl}phosphonate] | 20 to 100
3 | CCOP(C)(=O)CNC(=O)c1ncc(C(=O)NC(c2ccccc2)c2ccccc2)c(O)n1 (stereo not shown) [Compound 2-6, Ethyl {[({5-[(diphenylmethyl)carbamoyl]-4-hydroxypyrimidin-2-yl}carbonyl)amino]methyl}methylphosphinate] | 0.5 to 20
4 | COc1ccc(C(NC(=O)c2cnc(C(=O)NCC(=O)O)nc2O)c2ccc(OC)cc2)cc1 [Compound 2-17, 2-(5-(bis(4-methoxyphenyl)methylcarbamoyl)-4-hydroxypyrimidine-2-carboxamido)acetic acid] | 0.5 to 20
5 | CCOC(=O)CNC(=O)c1ncc(C(=O)NC(c2ccc(F)cc2)c2ccc(F)cc2)c(O)n1 [Compound 2-18, Ethyl 2-(5-(bis(4-fluorophenyl)methylcarbamoyl)-4-hydroxypyrimidine-2-carboxamido)acetate] | 0.5 to 20
6 | O=C(O)CNC(=O)c1ncc(C(=O)NC(c2ccc(F)cc2)c2ccc(F)cc2)c(O)n1 [Compound 2-19, 2-(5-(bis(4-fluorophenyl)methylcarbamoyl)-4-hydroxypyrimidine-2-carboxamido) acetic acid] | 0.5 to 20
7 | CCOC(=O)CNC(=O)c1ncc(C(=O)NCc2cccc3ccccc23)c(O)n1 [Compound 2-20, Ethyl-2-(4-hydroxy-5-(naphthalen-1-ylmethylcarbamoyl)pyrimidine-2-carboxamido)acetate] | 100 to 10000
8 | O=C(O)CNC(=O)c1ncc(C(=O)NCc2cccc3ccccc23)c(O)n1 [Compound 2-21, 2-(4-hydroxy-5-(naphthalen-1-ylmethylcarbamoyl)pyrimidine-2-carboxamido)acetic acid] | 20 to 100
9 | O=C(O)CNC(=O)c1ncc(C(=O)NCc2ccc3ccccc3c2)c(O)n1 [Compound 2-22, N-({4-hydroxy-5-[(naphthalen-2-ylmethyl)carbamoyl]pyrimidin-2-yl}carbonyl)glycine] | 20 to 100

Second part, the compound after the results:

Row | IC50 [nM] | Structure (SMILES)
10 | 0.5 to 20 | CCOC(=O)CCNC(=O)c1ncc(C(=O)NC(c2ccccc2)c2ccccc2)c(O)n1 [Compound 2-1, Ethyl N-({5-[(diphenylmethyl)carbamoyl]-4-hydroxypyrimidin-2-yl}carbonyl)-β-alaninate]
11 | 0.5 to 20 | CCOC(=O)CNC(=O)c1ncc(C(=O)NC(c2ccccc2)c2ccccc2)c(O)n1 [Compound 2-2, Ethyl N-({5-[(diphenylmethyl)carbamoyl]-4-hydroxypyrimidin-2-yl}carbonyl)glycinate]
12 | 0.5 to 20 | COC(=O)CNC(=O)c1ncc(C(=O)NC(c2ccccc2)c2ccccc2)c(O)n1 [Compound 2-3, Methyl N-({5-[(diphenylmethyl)carbamoyl]-4-hydroxypyrimidin-2-yl}carbonyl)glycinate]
13 | 0.5 to 20 | O=C(NCCS(=O)(=O)O)c1ncc(C(=O)NC(c2ccccc2)c2ccccc2)c(O)n1 [Compound 2-4, 2-[({5-[(diphenylmethyl)carbamoyl]-4-hydroxypyrimidin-2-yl}carbonyl)amino]ethanesulfonic acid]
14 | 0.5 to 20 | O=C(CNC(=O)c1ncc(C(=O)NC(c2ccccc2)c2ccccc2)c(O)n1)OCc1ccccc1 [Compound 2-7, Benzyl N-({5-[(diphenylmethyl)carbamoyl]-4-hydroxypyrimidin-2-yl}carbonyl)glycinate]
15 | 0.5 to 20 | O=C(O)CCNC(=O)c1ncc(C(=O)NC(c2ccccc2)c2ccccc2)c(O)n1 [Compound 2-11, 3-(5-(benzhydrylcarbamoyl)-4-hydroxypyrimidine-2-carboxamido)propanoic acid]
16 | 0.5 to 20 | O=C(O)CNC(=O)c1ncc(C(=O)NC(c2ccccc2)c2ccccc2)c(O)n1 [Compound 2-12, 2-(5-(benzhydrylcarbamoyl)-4-hydroxypyrimidine-2-carboxamido)acetic acid]
17 | 20 to 100 | O=C(NCP(=O)(O)O)c1ncc(C(=O)NC(c2ccccc2)c2ccccc2)c(O)n1 [Compound 2-13, {[({5-[(diphenylmethyl)carbamoyl]-4-hydroxypyrimidin-2-yl}carbonyl)amino]methyl}phosphonicacid]
18 | 0.5 to 20 | CP(=O)(O)CNC(=O)c1ncc(C(=O)NC(c2ccccc2)c2ccccc2)c(O)n1 [Compound 2-14, {[({5-[(diphenylmethyl)carbamoyl]-4-hydroxypyrimidin-2-yl}carbonyl)amino]methyl}methylphosphinicacid]
19 | 0.5 to 20 | O=C(O)CNC(=O)c1ncc(NC(=O)C(c2ccccc2)c2ccccc2)c(O)n1 [Compound 3-1, 2-(5-(2,2-Diphenylacetamido)-4-hydroxypyrimidine-2-carboxamido)acetic acid]
